Test results from ChEMBL document CHEMBL5380806, “Cyclopropenone, Cyclopropeniminium Ion, and Cyclopropenethione as Novel Electrophilic Warheads for Potential Target Discovery of Triple-Negative Breast Cancer” (J Med Chem, 2023).
Active and inactive are the calls of the source. The calls are words filed in the database; no cut-off is given here.

Assays:
[1] = target: T1, Double-stranded RNA-specific adenosine deaminase (Homo sapiens) (UniProt P55265); test: Binding affinity to ADAR in human MDA-MB-231 cells at 20 uM incubated for 2 to 5 hrs by pull down based LC-MS analysis; format: cell-based; settings: time 2-5 hrs
T1 sequence (whole entry): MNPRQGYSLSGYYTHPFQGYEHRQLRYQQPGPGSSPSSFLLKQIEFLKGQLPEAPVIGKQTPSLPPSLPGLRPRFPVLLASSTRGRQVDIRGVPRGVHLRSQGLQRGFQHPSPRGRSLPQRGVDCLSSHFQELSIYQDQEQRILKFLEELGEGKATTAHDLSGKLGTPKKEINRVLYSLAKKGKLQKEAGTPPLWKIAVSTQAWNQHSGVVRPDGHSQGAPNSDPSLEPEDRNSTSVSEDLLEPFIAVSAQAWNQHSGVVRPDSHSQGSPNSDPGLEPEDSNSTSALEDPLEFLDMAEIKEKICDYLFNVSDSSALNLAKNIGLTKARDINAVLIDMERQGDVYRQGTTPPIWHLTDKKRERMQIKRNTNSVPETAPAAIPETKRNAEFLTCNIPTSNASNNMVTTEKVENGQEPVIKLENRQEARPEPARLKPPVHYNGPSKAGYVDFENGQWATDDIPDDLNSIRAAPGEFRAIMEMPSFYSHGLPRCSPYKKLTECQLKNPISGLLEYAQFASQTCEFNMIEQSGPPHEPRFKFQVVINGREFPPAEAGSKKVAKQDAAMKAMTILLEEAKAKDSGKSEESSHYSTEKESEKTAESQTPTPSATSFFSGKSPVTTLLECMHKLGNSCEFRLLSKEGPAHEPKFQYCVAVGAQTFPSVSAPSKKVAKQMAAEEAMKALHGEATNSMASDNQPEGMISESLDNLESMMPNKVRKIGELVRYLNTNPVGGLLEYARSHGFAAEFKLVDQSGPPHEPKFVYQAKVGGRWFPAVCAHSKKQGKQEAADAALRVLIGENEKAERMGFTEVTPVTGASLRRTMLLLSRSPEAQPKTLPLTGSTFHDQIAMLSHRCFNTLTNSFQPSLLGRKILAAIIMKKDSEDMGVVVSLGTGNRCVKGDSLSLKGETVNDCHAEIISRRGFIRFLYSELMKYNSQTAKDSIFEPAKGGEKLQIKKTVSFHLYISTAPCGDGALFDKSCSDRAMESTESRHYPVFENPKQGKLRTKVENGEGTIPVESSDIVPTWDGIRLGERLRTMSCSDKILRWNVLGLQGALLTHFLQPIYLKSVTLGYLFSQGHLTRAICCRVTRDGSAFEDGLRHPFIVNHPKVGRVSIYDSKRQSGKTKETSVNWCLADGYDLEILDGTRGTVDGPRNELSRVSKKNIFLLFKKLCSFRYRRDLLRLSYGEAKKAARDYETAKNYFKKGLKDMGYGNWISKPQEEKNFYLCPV

[2] = target: T2, Peptidyl-prolyl cis-trans isomerase FKBP4 (Homo sapiens) (UniProt Q02790); test: Binding affinity to recombinant FKBP4 (unknown origin) at 10 uM by Western blot analysis
T2 sequence (whole entry): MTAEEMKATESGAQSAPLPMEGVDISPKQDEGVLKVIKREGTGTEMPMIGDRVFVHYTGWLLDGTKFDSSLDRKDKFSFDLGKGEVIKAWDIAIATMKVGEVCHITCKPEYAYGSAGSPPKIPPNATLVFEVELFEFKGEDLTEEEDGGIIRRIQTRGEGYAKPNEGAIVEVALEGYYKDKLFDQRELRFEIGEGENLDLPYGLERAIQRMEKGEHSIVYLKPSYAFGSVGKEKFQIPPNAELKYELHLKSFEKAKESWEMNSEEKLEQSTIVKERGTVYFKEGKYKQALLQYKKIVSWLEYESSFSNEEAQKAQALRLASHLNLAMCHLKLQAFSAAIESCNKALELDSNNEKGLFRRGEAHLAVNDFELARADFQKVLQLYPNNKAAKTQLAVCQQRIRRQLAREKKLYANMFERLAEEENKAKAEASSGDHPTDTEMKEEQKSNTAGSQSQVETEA

[3] = target: Glutathione S-transferase P (Homo sapiens, UniProt P09211); test: Binding affinity to N-terminal 6his/SUMO-tagged GSTP1 (unknown origin) expressed in Escherichia coli BL21 (DE3) cells incubated for 2 to 7 hrs by fluorescence based SDS-PAGE analysis; settings: time 2-7 hrs
Glutathione S-transferase P, sequence (P09211 2-210 limits assumed): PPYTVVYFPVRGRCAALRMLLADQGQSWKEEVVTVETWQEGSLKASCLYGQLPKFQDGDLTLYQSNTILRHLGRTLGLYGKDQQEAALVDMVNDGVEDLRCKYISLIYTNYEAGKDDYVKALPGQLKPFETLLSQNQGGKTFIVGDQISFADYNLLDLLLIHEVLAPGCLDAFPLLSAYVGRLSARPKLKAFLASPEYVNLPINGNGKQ

[4] = target: Alpha-enolase (Homo sapiens) (UniProt P06733); test: Binding affinity to recombinant ENO1 (unknown origin) at 10 uM by Western blot analysis
Alpha-enolase (Homo sapiens), sequence (P06733 whole entry): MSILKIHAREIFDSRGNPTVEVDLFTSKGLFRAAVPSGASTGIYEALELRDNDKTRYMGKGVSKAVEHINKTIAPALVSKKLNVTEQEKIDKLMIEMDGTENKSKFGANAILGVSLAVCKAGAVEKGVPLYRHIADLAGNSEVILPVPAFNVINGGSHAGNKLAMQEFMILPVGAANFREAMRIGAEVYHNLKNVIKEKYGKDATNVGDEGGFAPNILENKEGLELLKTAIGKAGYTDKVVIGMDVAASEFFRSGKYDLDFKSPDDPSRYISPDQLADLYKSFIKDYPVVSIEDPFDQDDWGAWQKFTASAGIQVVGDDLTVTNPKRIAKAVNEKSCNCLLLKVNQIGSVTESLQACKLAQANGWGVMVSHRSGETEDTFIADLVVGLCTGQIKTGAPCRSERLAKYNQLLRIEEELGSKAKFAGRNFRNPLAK

MDA-MB-231 [5] = test: Induction of cell cycle arrest in human MDA-MB-231 cells assessed as accumulation of cells at S phase at 0.625 uM incubated for 24 hrs by PI/RNase staining based flow cytometric analysis relative to control; format: functional
MDA-MB-231 [6] = test: Induction of apoptosis in human MDA-MB-231 cells transfected with FABP5 siRNA assessed as viable cells at 5 uM incubated for 48 hrs by Annexin V-FITC/PI staining based analysis (reference value: 85.75%); format: functional; settings: read-out: Activity
MDA-MB-231 [7] = test: Antiproliferative activity human MDA-MB-231 cells transfected with FABP5 siRNA assessed as reduction in cell viability at 2.5 to 5 uM; format: functional, cell-based; settings: dose 2.5-5 µM
[8] = system: GTPase KRas (Homo sapiens), P01116 [G12C]; test: Binding affinity to N-terminal 6his/SUMO-tagged KRAS G12C mutant (unknown origin) expressed in Escherichia coli BL21 (DE3) cells at 10 uM incubated for 2 to 7 hrs by fluorescence based SDS-PAGE analysis; settings: time 2-7 hrs
GTPase KRas (Homo sapiens), P01116 [G12C], sequence (P01116 whole entry G12C): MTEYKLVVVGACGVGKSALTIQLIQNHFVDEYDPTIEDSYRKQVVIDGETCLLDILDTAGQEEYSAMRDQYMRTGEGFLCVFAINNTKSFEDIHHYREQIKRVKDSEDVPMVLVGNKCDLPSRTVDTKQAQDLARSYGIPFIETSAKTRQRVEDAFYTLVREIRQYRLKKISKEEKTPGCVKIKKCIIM

MDA-MB-231 [9] = test: Induction of cell cycle arrest in human MDA-MB-231 cells assessed as G2/M phase cells at 0.625 uM incubated for 24 hrs by PI/RNase staining based flow cytometric analysis relative to control; format: functional
L02 = test: Cytotoxicity against human HL7702 cells assessed as inhibition of cell growth incubated for 72 hrs by CCK8 assay; format: toxicity, cell-based; settings: l02, 72 h
MDA-MB-231 [10] = test: Induction of apoptosis in human MDA-MB-231 cells assessed as early apoptotic cells at 5 uM incubated for 48 hrs by Annexin V-FITC/PI staining based analysis (reference value: 1.98%); format: functional
[11] = target: Lactotransferrin (Homo sapiens) (UniProt P02788); test: Binding affinity to N-terminal 6his/SUMO-tagged lactoferrin (unknown origin) expressed in Escherichia coli BL21 (DE3) cells incubated for 2 to 7 hrs by fluorescence based SDS-PAGE analysis; settings: time 2-7 hrs
Lactotransferrin (Homo sapiens), sequence (P02788 whole entry): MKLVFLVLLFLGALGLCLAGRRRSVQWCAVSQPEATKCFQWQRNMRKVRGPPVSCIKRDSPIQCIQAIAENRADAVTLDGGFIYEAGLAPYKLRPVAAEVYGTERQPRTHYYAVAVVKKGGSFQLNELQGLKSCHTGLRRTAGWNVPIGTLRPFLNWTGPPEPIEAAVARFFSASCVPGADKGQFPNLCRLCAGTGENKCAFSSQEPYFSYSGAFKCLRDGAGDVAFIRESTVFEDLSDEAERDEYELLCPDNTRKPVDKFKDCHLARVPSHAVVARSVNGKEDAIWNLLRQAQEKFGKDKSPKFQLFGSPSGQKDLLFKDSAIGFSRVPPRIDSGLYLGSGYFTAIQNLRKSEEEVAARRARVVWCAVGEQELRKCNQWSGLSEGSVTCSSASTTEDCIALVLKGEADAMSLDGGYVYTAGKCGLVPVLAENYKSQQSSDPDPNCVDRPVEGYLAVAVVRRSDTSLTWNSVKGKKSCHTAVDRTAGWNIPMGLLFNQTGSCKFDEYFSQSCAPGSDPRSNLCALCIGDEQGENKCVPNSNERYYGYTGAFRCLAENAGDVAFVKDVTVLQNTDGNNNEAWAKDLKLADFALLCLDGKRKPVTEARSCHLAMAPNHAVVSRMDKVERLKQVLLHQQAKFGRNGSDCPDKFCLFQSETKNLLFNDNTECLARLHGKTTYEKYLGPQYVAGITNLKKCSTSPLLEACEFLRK

MDA-MB-231 [12] = test: Induction of apoptosis in human MDA-MB-231 cells assessed as necrotic cells at 5 uM incubated for 48 hrs by Annexin V-FITC/PI staining based analysis (reference value: 1.06%); format: functional
Albumin = Albumin (Homo sapiens, UniProt P02768); test: Binding affinity to N-terminal 6his/SUMO-tagged human serum albumin expressed in Escherichia coli BL21 (DE3) cells incubated for 2 to 7 hrs by fluorescence based SDS-PAGE analysis; settings: time 2-7 hrs
Albumin, sequence (P02768 whole entry): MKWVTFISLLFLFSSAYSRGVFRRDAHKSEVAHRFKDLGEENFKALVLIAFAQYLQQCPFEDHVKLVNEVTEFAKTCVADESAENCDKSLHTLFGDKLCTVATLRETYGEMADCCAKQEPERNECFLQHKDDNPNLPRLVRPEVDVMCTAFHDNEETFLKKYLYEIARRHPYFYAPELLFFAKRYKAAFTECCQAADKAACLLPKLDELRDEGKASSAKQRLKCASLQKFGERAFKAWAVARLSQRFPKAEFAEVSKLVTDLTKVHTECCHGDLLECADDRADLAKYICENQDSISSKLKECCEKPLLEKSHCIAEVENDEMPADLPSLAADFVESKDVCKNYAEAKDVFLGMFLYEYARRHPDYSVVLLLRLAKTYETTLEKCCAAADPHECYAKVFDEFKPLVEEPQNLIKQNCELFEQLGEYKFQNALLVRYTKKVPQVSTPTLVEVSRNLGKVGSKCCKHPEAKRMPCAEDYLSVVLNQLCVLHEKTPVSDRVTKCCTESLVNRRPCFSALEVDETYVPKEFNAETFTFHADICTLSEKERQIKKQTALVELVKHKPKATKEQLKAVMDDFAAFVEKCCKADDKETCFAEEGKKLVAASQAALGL

MDA-MB-231 [13] = test: Induction of apoptosis in human MDA-MB-231 cells transfected with FABP5 siRNA assessed as necrotic cells at 5 uM incubated for 48 hrs by Annexin V-FITC/PI staining based analysis (reference value: 2.52%); format: functional

Activity [1]: Active | Activity [2]: Active | Activity [3]: Active | Activity [4]: Active | Activity [8]: Active | Activity [11]: Active | Activity (Albumin): Active
Compound: C#CCOc1ccc(-c2cc2=O)cc1
Activity (MDA-MB-231 [5]): 14.85% | viability at 5 µM (MDA-MB-231 [6]): 28.9% | Activity (MDA-MB-231 [7]): Active | Activity (MDA-MB-231 [9]): 12.03% | Activity (L02): Non-Toxic | Activity (MDA-MB-231 [10]): 16.23% | Activity (MDA-MB-231 [12]): 2.49% | Activity (MDA-MB-231 [13]): 7.42%
